How the values were obtained:
Test in all cases: Twenty-four hour biofilm growth (crystal violet)
Format in all cases: cell-based
[1] = system: P. gingivalis
Procedure: (§1) The increase in biofilm formation of the tested bacteria in response to selected saccharides (D-turanose, D-lactitol, myo-inositol, and N-acetyl-D-mannosamine) was investigated by setting up biofilm growth assays in a nutritionally rich medium (brain heart infusion broth (BHI), Oxoid), over 24 hours. Late exponential growth phase liquid cultures were prepared by transferring the respective bacterium from blood agar plates to BHI and overnight incubation at 37° C. in an anaerobic atmosphere for A. viscosus, V. parvula, P. gingivalis, P. intermedia, T. forsythia, A. naeslundii, and C. sputigena, and in a 5% CO2 environment for S. salivarius, S. sanguinis, S. mitis, A. actinomycetemcomitans, S. mutans, and S. gordonii. Overnight cultures were transferred to BHI and adjusted to a concentration of 1×10^7 CFU/ml by measuring the optical density at 600 nm (OD600) (BioRad SmartSpec 3000). For each strain, 200 μl of the bacterial suspension was added to a 96-well plate containing 20 μl of the respective saccharides. Final concentrations of the saccharides were set to 5, 10, 20 and 25 μmol/ml. […] Additionally, for each bacterium tested, a background control, to correct for background staining, was added. This background control contained the bacterium tested and 0.03 weight % chlorhexidine, as an antiseptic. Plates were incubated as previously described. After 24 hrs the supernatant was removed from the wells of the plates. The wells were washed twice with 1×100 μL PBS (phosphate buffered saline), fixed for 20 minutes with 96% vol. ethanol (96% vol. solution in water) and the biofilm retained at the bottom of the wells was stained with 1 weight % crystal violet (1 weight % solution in water). The bound dye was dissolved with 5% vol. acetic acid (5% vol. solution in water). Quantification of the stained biofilm was performed by measuring the absorbance at 630 nm using a Multiskan Ascent microplate reader (Thermo Scientific).
(§2) The experiment was carried out on three different days (thus providing 3 biological replicas) and each day the experiment was carried out in quadruple (thus providing 4 technical replicas) for each combination of bacterium with saccharide and for each control. For each day and for each combination, the average (mean) of the values obtained (as detailed above) for the four technical replicas was calculated to provide a single value for each combination on each day. The values shown in Tables 7a, 7b, 8a, 8b, below, are the average (mean) of the three single values obtained for each combination of bacterium with saccharide.

[2] = system: S. gordonii
Procedure: as §1, §2

[3] = system: A. viscosus
Procedure: as §1, §2

[4] = system: S. sanguinis
Procedure: as §1, §2

[5] = system: S. mutans; details: S mutans
Procedure: as §1, §2

[6] = system: V. parvula
Procedure: as §1, §2

[7] = system: C. sputigena
Procedure: as §1, §2

[8] = system: S. salivarius
Procedure: as §1, §2

[9] = system: S. mitis
Procedure: as §1, §2

[10] = system: A. actinomycetemcomitans
Procedure: as §1, §2

[11] = system: P. intermedia
Procedure: as §1, §2

[12] = system: A. naeslundii
Procedure: as §1, §2

[13] = system: T. forsythia
Procedure: as §1, §2

SMILES: CC(=O)N[C@H](C=O)[C@@H](O)[C@H](O)[C@H](O)CO [N-acetyl-D-mannosamine, 2-acetamido-2-deoxy-D-mannose]
- biofilm growth: OD 630 nm at 24 hrs divided by OD of control (control = 1) ([1]; 5 μmol/ml): 0.6683
- biofilm growth: OD 630 nm at 24 hrs divided by OD of control (control = 1) ([1]; 10 μmol/ml): 0.8031
- biofilm growth: OD 630 nm at 24 hrs divided by OD of control (control = 1) ([1]; 20 μmol/ml): 0.7270
- biofilm growth: OD 630 nm at 24 hrs divided by OD of control (control = 1) ([1]; 25 μmol/ml): 0.8345
- biofilm growth: OD 630 nm at 24 hrs divided by OD of control (control = 1) ([2]; 5 μmol/ml): 0.7178
- biofilm growth: OD 630 nm at 24 hrs divided by OD of control (control = 1) ([2]; 10 μmol/ml): 1.0041
- biofilm growth: OD 630 nm at 24 hrs divided by OD of control (control = 1) ([2]; 20 μmol/ml): 0.5487
- biofilm growth: OD 630 nm at 24 hrs divided by OD of control (control = 1) ([2]; 25 μmol/ml): 0.6746
- biofilm growth: OD 630 nm at 24 hrs divided by OD of control (control = 1) ([3]; 5 μmol/ml): 0.8126
- biofilm growth: OD 630 nm at 24 hrs divided by OD of control (control = 1) ([3]; 10 μmol/ml): 0.9165
- biofilm growth: OD 630 nm at 24 hrs divided by OD of control (control = 1) ([3]; 20 μmol/ml): 0.5093
- biofilm growth: OD 630 nm at 24 hrs divided by OD of control (control = 1) ([3]; 25 μmol/ml): 0.6492
- biofilm growth: OD 630 nm at 24 hrs divided by OD of control (control = 1) ([4]; 5 μmol/ml): 1.5651
- biofilm growth: OD 630 nm at 24 hrs divided by OD of control (control = 1) ([4]; 10 μmol/ml): 2.4890
- biofilm growth: OD 630 nm at 24 hrs divided by OD of control (control = 1) ([4]; 20 μmol/ml): 0.5600
- biofilm growth: OD 630 nm at 24 hrs divided by OD of control (control = 1) ([4]; 25 μmol/ml): 1.0289
- biofilm growth: OD 630 nm at 24 hrs divided by OD of control (control = 1) ([5]; 5 μmol/ml): 0.8572
- biofilm growth: OD 630 nm at 24 hrs divided by OD of control (control = 1) ([5]; 10 μmol/ml): 0.8329
- biofilm growth: OD 630 nm at 24 hrs divided by OD of control (control = 1) ([5]; 20 μmol/ml): 0.7015
- biofilm growth: OD 630 nm at 24 hrs divided by OD of control (control = 1) ([5]; 25 μmol/ml): 0.6922
- biofilm growth: OD 630 nm at 24 hrs divided by OD of control (control = 1) ([6]; 5 μmol/ml): 0.3811
- biofilm growth: OD 630 nm at 24 hrs divided by OD of control (control = 1) ([6]; 10 μmol/ml): 1.0958
- biofilm growth: OD 630 nm at 24 hrs divided by OD of control (control = 1) ([6]; 20 μmol/ml): 0.1297
- biofilm growth: OD 630 nm at 24 hrs divided by OD of control (control = 1) ([6]; 25 μmol/ml): 0.3718
- biofilm growth: OD 630 nm at 24 hrs divided by OD of control (control = 1) ([7]; 5 μmol/ml): 0.9108
- biofilm growth: OD 630 nm at 24 hrs divided by OD of control (control = 1) ([7]; 10 μmol/ml): 0.9323
- biofilm growth: OD 630 nm at 24 hrs divided by OD of control (control = 1) ([7]; 20 μmol/ml): 0.8871
- biofilm growth: OD 630 nm at 24 hrs divided by OD of control (control = 1) ([7]; 25 μmol/ml): 0.8822
- biofilm growth: OD 630 nm at 24 hrs divided by OD of control (control = 1) ([8]; 5 μmol/ml): 0.6489
- biofilm growth: OD 630 nm at 24 hrs divided by OD of control (control = 1) ([8]; 10 μmol/ml): 0.6824
- biofilm growth: OD 630 nm at 24 hrs divided by OD of control (control = 1) ([8]; 20 μmol/ml): 0.3314
- biofilm growth: OD 630 nm at 24 hrs divided by OD of control (control = 1) ([8]; 25 μmol/ml): 0.3520
- biofilm growth: OD 630 nm at 24 hrs divided by OD of control (control = 1) ([9]; 5 μmol/ml): 2.4328
- biofilm growth: OD 630 nm at 24 hrs divided by OD of control (control = 1) ([9]; 10 μmol/ml): 4.2456
- biofilm growth: OD 630 nm at 24 hrs divided by OD of control (control = 1) ([9]; 20 μmol/ml): 2.1524
- biofilm growth: OD 630 nm at 24 hrs divided by OD of control (control = 1) ([9]; 25 μmol/ml): 3.0078
- biofilm growth: OD 630 nm at 24 hrs divided by OD of control (control = 1) ([10]; 5 μmol/ml): 0.9519
- biofilm growth: OD 630 nm at 24 hrs divided by OD of control (control = 1) ([10]; 10 μmol/ml): 1.0569
- biofilm growth: OD 630 nm at 24 hrs divided by OD of control (control = 1) ([10]; 20 μmol/ml): 0.6532
- biofilm growth: OD 630 nm at 24 hrs divided by OD of control (control = 1) ([10]; 25 μmol/ml): 0.7158
- biofilm growth: OD 630 nm at 24 hrs divided by OD of control (control = 1) ([11]; 5 μmol/ml): 1.1437
- biofilm growth: OD 630 nm at 24 hrs divided by OD of control (control = 1) ([11]; 10 μmol/ml): 1.5179
- biofilm growth: OD 630 nm at 24 hrs divided by OD of control (control = 1) ([11]; 20 μmol/ml): 1.0689
- biofilm growth: OD 630 nm at 24 hrs divided by OD of control (control = 1) ([11]; 25 μmol/ml): 1.2252
- biofilm growth: OD 630 nm at 24 hrs divided by OD of control (control = 1) ([12]; 5 μmol/ml): 1.3056
- biofilm growth: OD 630 nm at 24 hrs divided by OD of control (control = 1) ([12]; 10 μmol/ml): 1.4302
- biofilm growth: OD 630 nm at 24 hrs divided by OD of control (control = 1) ([12]; 20 μmol/ml): 1.1823
- biofilm growth: OD 630 nm at 24 hrs divided by OD of control (control = 1) ([12]; 25 μmol/ml): 1.2220
- biofilm growth: OD 630 nm at 24 hrs divided by OD of control (control = 1) ([13]; 5 μmol/ml): 0.6028
- biofilm growth: OD 630 nm at 24 hrs divided by OD of control (control = 1) ([13]; 10 μmol/ml): 0.9745
- biofilm growth: OD 630 nm at 24 hrs divided by OD of control (control = 1) ([13]; 20 μmol/ml): 0.4562
- biofilm growth: OD 630 nm at 24 hrs divided by OD of control (control = 1) ([13]; 25 μmol/ml): 0.5433

— patent US11419806B2, “Prebiotic oral care methods using a saccharide” (Colgate-Palmolive Company, priority 2013, dated 2022)
